Measured values as given in patent US11738008B2, “N-methyl-D-aspartic acid receptor modulators” (Emory University, priority 2018, dated 2023).
Like-named read-outs stand apart in the source and are kept apart here.

Tests used:
rat GluN1/GluN2D [1] = molecular target: rat GluN1/GluN2D (Rattus norvegicus, UniProt Q62645); assay: Two-electrode voltage clamp recordings in Xenopus laevis oocytes, potentiation of GluN1/GluN2D; type: cell-based
Description: (§1) Xenopus laevis oocytes were purchased unfertilized from Ecocyte (Austin, Tex.). The oocytes were injected with mRNA to express recombinant rat GluN1/GluN2A, GluN1/GluN2B, GluN1/GluN2C, and GluN1/GluN2D and two-electrode voltage clamp (TEVC) recordings were performed. Drs. S. Heinemann (Salk Institute), S. Nakanishi (Kyoto University), and P. Seeburg (University of Heidelberg) provided the cDNAs for rat GluN1-1a (GenBank accession numbers U11418 and U08261, referred to as GluN1 henceforth), GluN2A (D13211), GluN2B (U11419), GluN2C (M91563), and GluN2D (D13213). GluN2C and GluN2D were altered according to literature precedent. […] To prevent the current increase typically seen during experiments with oocytes expressing GluN1/GluN2A receptors, the oocytes were either injected with 20 nL of 100 mM K-BAPTA (potassium 1,2-bis(o-aminophenoxy)ethane-N,N,N,N-tetraacetic acid) or pretreated with 50 μM BAPTA-AM (1,2-bis(o-aminophenoxy)ethane-N,N,N,N-tetraacetic acid tetraacetoxymethyl ester) for 10 minutes.

rat GluN1/GluN2D [2] = molecular target: rat GluN1/GluN2D (Rattus norvegicus, UniProt P35439+Q62645); assay: as above; type: cell-based
Description: as §1

M5 = M5 (Homo sapiens, UniProt P08912); assay: NIMH PDSP radioligand binding, M5; conditions: read-out: Radioligand binding in 10 μM compound (% control)
Description: (§2) The NIMH PDSP is Directed by Bryan L. Roth at the University of North Carolina at Chapel Hill and Project Officer Jamie Driscoll at NIMH, Bethesda Md., USA. Radioligand binding was measured in the presence of 10 μM 1180-420 and 1180-447. […] For experimental details please refer to the PDSP web site https://pdsp.unc.edu/ims/investigator/web/. Both 1180-420 and 1180-447 were also tested at AMPA, nicotinic acetylcholine, serotonin, GABA, and glycine ion channels using a two-electrode voltage clamp assay.
(§3) Receptor binding profiles of compound 1180-447 were generously provided by the National Institute of Mental Health's Psychoactive Drug Screening Program, Contract # HHSN-271-2013-00017-C(NIMH PDSP). The NIMH PDSP is directed by Bryan L. Roth at the University of North Carolina at Chapel Hill and Project Officer Jamie Driscoll at NIMH, Bethesda Md., USA. Radioligand binding was measured in the presence of 10 μM 1180-447. […] For experimental details please refer to the PDSP web site https://pdsp.unc.edu/ims/investigator/web/.
(§4) The NIMH PDSP is Directed by Bryan L. Roth at the University of North Carolina at Chapel Hill and Project Officer Jamie Driscoll at NIMH, Bethesda Md., USA. Radioligand binding was measured in the presence of 10 μM 1180-420. […] For experimental details please refer to the PDSP web site https://pdsp.unc.edu/ims/investigator/web/.

α1A = α1A (Homo sapiens, UniProt P35348); assay: NIMH PDSP radioligand binding, α1A; conditions: read-out: Radioligand binding in 10 μM compound (% control)
Description: as §2, §3, §4

5-HT3 = molecular target: T1, 5-HT3 (Homo sapiens, UniProt P46098); assay: NIMH PDSP radioligand binding, 5-HT3; conditions: read-out: Radioligand binding in 10 μM compound (% control)
T1 construct: NIMH PDSP (assay provider)
Description: as §2, §3, §4

rat GluN1/GluN2C [3] = molecular target: rat GluN1/GluN2C (Rattus norvegicus, UniProt P35439+Q00961); assay: Two-electrode voltage clamp recordings in Xenopus laevis oocytes, potentiation of GluN1/GluN2C; type: cell-based
Description: as §1

rat GluN1/GluN2C [4] = molecular target: rat GluN1/GluN2C (Rattus norvegicus, UniProt Q00961); assay: as above; type: cell-based
Description: as §1

[5] = In vivo pharmacokinetics, plasma and brain, IP 10 mg/kg; design: species or system C57BL/6 mice; conditions: mouse; for AUC % Extrapolation / AUCINF / AUCLAST / t½terminal / Tmax / Cmax / AUC(0-inf) / AUC(0-t): mean; for max brain concentration / half-life: IP 10 mg/kg; for Kp / half-life / Tmax / Cmax / AUC(0-inf) / AUC(0-t): male; for Kp: C57BL/6, brain and plasma, IP 10 mg/kg fed, read-out: Ratio_AUCLAST (Brain/plasma); for half-life: C57BL/6, plasma, read-out: half-lives in plasma; for Tmax / Cmax / AUC(0-inf) / AUC(0-t): C57BL/6
Description: In vivo analysis of 1180-420 and 1180-447 for pharmacokinetic properties: In vivo analysis of 1180-420 and 1180-447 for pharmacokinetic properties was performed by Pharmaron (Irvine, Calif.). […] The mouse is placed head down at a 45-degree angle to facilitate blood removal. After perfusion, the brain ventricle is opened, and the brain is removed. […] The mixtures were then vortexed for 30 seconds and subsequently centrifuged (˜4000 rpm) for 15 minutes.

5-HT2B = molecular target: T2, 5-HT2B (Homo sapiens, UniProt P41595); assay: NIMH PDSP radioligand binding, 5-HT2B; conditions: read-out: Radioligand binding in 10 μM compound (% control)
T2 construct: NIMH PDSP (assay provider)
Description: as §2, §3, §4

D5 = molecular target: T3, D5 (Homo sapiens, UniProt P21918); assay: NIMH PDSP radioligand binding, D5; conditions: for remaining activity at 10 µM: read-out: Radioligand binding in 10 μM compound (% control)
T3 construct: NIMH PDSP (assay provider)
Description: as §2, §3, §4

α1B = α1B (Homo sapiens, UniProt P35368); assay: NIMH PDSP radioligand binding, α1B; conditions: read-out: Radioligand binding in 10 μM compound (% control)
Description: as §2, §3, §4

5-HT2C = molecular target: T4, 5-HT2C (Homo sapiens, UniProt P28335); assay: NIMH PDSP radioligand binding, 5-HT2C; conditions: for remaining activity at 10 µM: read-out: Radioligand binding in 10 μM compound (% control)
T4 construct: NIMH PDSP (assay provider)
T4 sequence (P28335 33-458): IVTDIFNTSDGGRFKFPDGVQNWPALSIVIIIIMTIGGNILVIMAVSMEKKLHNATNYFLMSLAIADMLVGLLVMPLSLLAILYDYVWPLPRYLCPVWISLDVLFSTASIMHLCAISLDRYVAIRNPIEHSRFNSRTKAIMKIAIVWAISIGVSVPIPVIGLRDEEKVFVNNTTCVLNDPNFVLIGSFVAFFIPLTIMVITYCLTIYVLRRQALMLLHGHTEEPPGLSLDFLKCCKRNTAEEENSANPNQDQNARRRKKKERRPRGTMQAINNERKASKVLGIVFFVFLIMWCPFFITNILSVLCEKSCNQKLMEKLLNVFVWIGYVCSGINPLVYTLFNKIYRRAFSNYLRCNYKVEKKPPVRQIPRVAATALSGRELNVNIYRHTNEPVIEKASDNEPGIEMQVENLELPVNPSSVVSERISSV
Description: as §2, §3, §4

α1D = α1D (Homo sapiens, UniProt P25100); assay: NIMH PDSP radioligand binding, α1D; conditions: read-out: Radioligand binding in 10 μM compound (% control)
Description: as §2, §3, §4

D3 = molecular target: T5, D3 (Homo sapiens, UniProt P35462); assay: NIMH PDSP radioligand binding, D3; conditions: read-out: Radioligand binding in 10 μM compound (% control)
T5 construct: NIMH PDSP (assay provider)
Description: as §2, §3, §4

[6] = Brain IP 10 mg/kg fed, read-out: Cmax
[7] = Brain IP 10 mg/kg fed, read-out: Cmax (ng/g)
[8] = Plasma IP 10 mg/kg fed, read-out: Cmax
[9] = Plasma IP 10 mg/kg fed, read-out: Cmax (ng/mL)
[10] = read-out: pKi values from non-linear regression of radioligand competition binding isotherms (converted)
[11] = maximal response, current without potentiator = 100%

T3 sequence (P21918 whole entry): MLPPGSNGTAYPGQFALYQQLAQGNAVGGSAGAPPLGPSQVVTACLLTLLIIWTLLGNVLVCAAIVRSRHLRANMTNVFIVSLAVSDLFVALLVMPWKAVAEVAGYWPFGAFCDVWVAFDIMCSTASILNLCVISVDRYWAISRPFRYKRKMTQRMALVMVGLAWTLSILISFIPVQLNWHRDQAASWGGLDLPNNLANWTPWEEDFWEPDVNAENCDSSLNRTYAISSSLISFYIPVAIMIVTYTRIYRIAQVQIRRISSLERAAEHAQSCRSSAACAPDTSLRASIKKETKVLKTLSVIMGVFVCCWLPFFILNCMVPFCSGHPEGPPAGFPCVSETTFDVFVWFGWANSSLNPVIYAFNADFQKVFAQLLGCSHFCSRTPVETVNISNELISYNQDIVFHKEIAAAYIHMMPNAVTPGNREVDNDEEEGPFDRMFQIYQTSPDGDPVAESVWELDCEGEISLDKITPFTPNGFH
α1A, sequence (P35348 whole entry): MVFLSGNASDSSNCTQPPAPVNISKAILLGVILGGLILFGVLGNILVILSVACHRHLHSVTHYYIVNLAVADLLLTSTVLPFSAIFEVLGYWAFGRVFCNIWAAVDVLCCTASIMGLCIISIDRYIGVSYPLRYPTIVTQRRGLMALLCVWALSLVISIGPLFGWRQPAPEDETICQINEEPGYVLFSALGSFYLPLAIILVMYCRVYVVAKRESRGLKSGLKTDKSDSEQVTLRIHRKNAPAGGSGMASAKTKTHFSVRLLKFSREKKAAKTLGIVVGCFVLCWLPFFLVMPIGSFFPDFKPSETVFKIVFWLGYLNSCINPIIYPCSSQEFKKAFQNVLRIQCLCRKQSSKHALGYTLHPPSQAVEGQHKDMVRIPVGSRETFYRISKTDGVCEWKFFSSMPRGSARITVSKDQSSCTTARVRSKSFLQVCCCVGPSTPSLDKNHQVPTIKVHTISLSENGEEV
rat GluN1/GluN2D (Rattus norvegicus, UniProt P35439+Q62645), sequence (Q62645 28-1323, other chains not shown): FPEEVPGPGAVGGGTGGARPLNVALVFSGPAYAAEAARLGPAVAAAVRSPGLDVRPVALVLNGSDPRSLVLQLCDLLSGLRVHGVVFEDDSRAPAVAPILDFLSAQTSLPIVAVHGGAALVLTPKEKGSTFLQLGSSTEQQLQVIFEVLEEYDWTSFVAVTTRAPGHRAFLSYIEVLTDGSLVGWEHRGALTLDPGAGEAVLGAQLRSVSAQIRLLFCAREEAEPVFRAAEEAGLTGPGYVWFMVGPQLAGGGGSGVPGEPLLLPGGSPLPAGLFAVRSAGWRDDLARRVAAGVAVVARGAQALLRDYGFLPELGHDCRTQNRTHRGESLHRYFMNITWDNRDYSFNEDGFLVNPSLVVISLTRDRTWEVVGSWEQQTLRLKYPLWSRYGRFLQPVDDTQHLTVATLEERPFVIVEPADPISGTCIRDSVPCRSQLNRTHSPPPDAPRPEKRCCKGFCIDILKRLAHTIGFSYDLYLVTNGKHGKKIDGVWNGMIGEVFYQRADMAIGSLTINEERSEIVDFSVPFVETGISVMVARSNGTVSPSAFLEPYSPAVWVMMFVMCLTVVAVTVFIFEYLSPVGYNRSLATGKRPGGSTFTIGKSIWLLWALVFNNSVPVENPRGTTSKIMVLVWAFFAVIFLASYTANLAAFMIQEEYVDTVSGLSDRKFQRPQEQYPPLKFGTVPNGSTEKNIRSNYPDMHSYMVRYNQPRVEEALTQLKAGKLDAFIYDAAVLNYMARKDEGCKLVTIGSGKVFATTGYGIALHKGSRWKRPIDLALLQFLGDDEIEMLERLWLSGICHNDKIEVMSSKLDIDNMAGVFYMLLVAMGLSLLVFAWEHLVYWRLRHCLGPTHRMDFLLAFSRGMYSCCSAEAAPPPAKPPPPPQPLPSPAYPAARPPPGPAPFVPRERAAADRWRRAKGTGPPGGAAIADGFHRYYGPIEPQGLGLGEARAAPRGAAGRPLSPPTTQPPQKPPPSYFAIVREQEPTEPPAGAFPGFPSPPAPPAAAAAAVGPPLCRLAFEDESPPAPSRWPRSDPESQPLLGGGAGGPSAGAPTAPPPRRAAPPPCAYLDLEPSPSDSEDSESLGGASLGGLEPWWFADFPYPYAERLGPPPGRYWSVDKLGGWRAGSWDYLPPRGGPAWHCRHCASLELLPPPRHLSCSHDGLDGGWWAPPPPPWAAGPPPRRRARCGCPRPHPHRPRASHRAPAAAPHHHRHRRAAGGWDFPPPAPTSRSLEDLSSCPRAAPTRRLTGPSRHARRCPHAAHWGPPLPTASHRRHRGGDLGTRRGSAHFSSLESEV
rat GluN1/GluN2D (Rattus norvegicus, UniProt Q62645), sequence (Q62645 28-1323, other chains not shown): as above
α1D, sequence (P25100 whole entry): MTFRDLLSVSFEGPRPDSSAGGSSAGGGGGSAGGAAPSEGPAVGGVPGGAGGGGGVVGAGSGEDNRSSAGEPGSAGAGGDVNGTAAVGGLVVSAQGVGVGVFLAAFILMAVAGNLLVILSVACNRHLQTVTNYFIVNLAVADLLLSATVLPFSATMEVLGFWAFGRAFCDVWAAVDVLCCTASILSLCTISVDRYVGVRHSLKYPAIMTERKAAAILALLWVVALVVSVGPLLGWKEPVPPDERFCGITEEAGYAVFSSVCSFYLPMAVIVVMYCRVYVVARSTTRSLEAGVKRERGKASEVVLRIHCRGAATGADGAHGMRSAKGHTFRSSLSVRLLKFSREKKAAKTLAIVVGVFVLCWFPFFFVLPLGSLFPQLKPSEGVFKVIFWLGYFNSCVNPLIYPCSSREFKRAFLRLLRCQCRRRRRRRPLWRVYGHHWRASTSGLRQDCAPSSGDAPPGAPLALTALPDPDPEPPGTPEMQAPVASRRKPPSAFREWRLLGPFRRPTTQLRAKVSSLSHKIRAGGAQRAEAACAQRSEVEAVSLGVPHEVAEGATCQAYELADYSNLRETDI
α1B, sequence (P35368 whole entry): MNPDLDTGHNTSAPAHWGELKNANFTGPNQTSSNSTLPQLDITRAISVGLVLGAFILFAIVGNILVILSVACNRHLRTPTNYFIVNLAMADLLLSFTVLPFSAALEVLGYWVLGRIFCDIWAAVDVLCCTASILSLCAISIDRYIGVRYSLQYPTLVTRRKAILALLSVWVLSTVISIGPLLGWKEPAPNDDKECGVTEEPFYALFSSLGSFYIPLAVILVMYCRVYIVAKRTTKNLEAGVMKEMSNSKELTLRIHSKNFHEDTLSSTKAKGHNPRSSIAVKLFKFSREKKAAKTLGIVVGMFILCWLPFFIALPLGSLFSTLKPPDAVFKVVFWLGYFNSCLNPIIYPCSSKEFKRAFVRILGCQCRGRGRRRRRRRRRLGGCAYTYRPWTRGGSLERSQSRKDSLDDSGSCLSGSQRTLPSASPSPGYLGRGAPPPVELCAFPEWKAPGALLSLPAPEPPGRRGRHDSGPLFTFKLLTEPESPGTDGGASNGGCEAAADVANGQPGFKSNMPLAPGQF
rat GluN1/GluN2C (Rattus norvegicus, UniProt Q00961), sequence (Q00961 20-1237, other chains not shown): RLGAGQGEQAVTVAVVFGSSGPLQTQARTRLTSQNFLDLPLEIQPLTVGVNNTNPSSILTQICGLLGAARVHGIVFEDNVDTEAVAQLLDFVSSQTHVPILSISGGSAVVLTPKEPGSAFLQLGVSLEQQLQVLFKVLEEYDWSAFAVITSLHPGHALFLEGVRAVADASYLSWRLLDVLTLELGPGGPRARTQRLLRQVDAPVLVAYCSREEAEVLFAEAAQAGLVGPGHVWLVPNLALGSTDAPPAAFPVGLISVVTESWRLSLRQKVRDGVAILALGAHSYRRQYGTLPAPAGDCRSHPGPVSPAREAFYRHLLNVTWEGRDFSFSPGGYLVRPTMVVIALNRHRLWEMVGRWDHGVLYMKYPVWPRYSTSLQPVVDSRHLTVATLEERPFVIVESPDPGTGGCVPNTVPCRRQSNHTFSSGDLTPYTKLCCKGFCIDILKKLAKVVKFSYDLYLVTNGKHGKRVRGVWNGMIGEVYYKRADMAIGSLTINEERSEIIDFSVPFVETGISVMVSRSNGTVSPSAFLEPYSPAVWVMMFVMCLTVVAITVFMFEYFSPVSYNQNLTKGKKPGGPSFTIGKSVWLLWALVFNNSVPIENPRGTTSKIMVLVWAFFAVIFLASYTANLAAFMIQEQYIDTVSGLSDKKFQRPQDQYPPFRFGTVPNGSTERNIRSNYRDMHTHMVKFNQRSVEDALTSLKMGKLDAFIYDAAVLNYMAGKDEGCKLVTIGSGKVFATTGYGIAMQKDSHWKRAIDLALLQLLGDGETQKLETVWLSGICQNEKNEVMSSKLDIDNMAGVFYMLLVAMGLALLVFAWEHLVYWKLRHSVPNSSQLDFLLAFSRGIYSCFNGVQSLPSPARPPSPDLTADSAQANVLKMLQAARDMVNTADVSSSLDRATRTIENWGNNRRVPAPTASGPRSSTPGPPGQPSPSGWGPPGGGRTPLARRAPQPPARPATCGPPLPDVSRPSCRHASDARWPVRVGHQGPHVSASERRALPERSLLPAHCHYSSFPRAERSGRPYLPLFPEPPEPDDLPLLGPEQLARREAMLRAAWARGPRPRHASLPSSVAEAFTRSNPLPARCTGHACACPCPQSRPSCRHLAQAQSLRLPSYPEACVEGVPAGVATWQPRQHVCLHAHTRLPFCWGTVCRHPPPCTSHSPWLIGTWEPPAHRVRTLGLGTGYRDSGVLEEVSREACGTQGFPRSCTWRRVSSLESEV
rat GluN1/GluN2C (Rattus norvegicus, UniProt P35439+Q00961), sequence (Q00961 20-1237, other chains not shown): as above
T5 sequence (P35462 whole entry): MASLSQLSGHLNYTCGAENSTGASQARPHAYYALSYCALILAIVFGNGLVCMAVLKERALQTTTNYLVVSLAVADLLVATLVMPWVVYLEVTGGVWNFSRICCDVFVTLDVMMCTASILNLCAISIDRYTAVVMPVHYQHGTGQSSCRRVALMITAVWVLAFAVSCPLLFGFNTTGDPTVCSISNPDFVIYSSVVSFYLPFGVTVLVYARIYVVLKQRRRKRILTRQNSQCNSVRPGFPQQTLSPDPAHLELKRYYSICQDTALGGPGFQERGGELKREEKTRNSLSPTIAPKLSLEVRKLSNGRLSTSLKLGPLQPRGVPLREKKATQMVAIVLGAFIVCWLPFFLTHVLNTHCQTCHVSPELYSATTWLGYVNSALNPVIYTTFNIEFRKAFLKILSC

With COc1ccc(OCC2c3cccn3CC(=O)N2Cc2cccc(C(F)(F)F)c2)cc1 (racemic) [1180-447, 1-((4-Methoxyphenoxy)methyl)-2-(3-(trifluoromethyl)benzyl)-1,2-dihydropyrrolo[1,2-a]pyrazin-3(4H)-one] the “GluN2D (max) (%)” value (rat GluN1/GluN2D [1]) was “(396) %”, the EC50 (rat GluN1/GluN2D [2]; read-out: GluN2D pEC50 [95% CI] (converted)) was 1580 nM and the remaining activity at 10 µM (M5) was 108%. For the same compound, the remaining activity at 10 µM (α1A) was 97%, the remaining activity at 10 µM (5-HT3) was 68% and the EC50 (rat GluN1/GluN2C [3]; read-out: GluN2C pEC50 [95% CI] (converted)) was 1260 nM. The “GluN2C (max) (%)” value (rat GluN1/GluN2C [4]) was “(298) %”, the “AUC % Extrapolation” value ([5]; Brain IP 10 mg/kg fed) was 9% and the “AUCINF” value ([5]; Brain IP 10 mg/kg fed) was 1836 ng·h/g. For the same compound, the “AUCLAST” value ([5]; Brain IP 10 mg/kg fed) was 1670 ng·h/g, the “t½terminal” value ([5]; Brain IP 10 mg/kg fed) was 1.2 h and the max brain concentration [5] was 4 µM. For the same compound, the “AUC % Extrapolation” value ([5]; Plasma IP 10 mg/kg fed) was 6%, the “t½terminal” value ([5]; Plasma IP 10 mg/kg fed) was 1.0 h and the Kp [5] was 2. The half-life [5] was > 60 min, the Tmax ([5]; Brain IP 10 mg/kg fed) was 30 min and the Cmax [5, 6] was 3900 nM. It also gave a Cmax [5, 7] of 1670 ng/g, an AUC(0-inf) ([5]; Plasma IP 10 mg/kg fed) of 760 ng·h/mL and an AUC(0-t) ([5]; Plasma IP 10 mg/kg fed) of 715 ng·h/mL. The Tmax ([5]; Plasma IP 10 mg/kg fed) was 18 min, the Cmax [5, 8] was 1500 nM and the Cmax [5, 9] was 635 ng/mL. It also gave a remaining activity at 10 µM (5-HT2B) of 78%, a remaining activity at 10 µM (D5) of 67% and a remaining activity at 10 µM (α1B) of 102%. The remaining activity at 10 µM (5-HT2C) was 32%, the Ki (5-HT2C; [10]) was > 10 µM and the remaining activity at 10 µM (α1D) was 79%. It also gave a remaining activity at 10 µM (D3) of 93%.
With COc1ccc(OCC2c3cccn3CCN2C(=O)c2cccc(Cl)c2)cc1 (centres unmarked) [1180-420, (3-Chlorophenyl)(1-((4-methoxyphenoxy)methyl)-3,4-dihydropyrrolo[1,2-a]pyrazin-2(1H)-yl)methanone] the “GluN2D Max %” value (rat GluN1/GluN2D [1]; [11]) was 374%, the EC50 (rat GluN1/GluN2D [2]; read-out: GluN2D EC50) was 2300 nM and the remaining activity at 10 µM (M5) was 101%. For the same compound, the remaining activity at 10 µM (α1A) was 91%, the remaining activity at 10 µM (5-HT3) was 116% and the EC50 (rat GluN1/GluN2C [3]; read-out: GluN2C EC50) was 1900 nM. The “GluN2C Max %” value (rat GluN1/GluN2C [4]; [11]) was 312%, the “AUC % Extrapolation” value ([5]; Brain IP 10 mg/kg fed) was 7% and the “AUCINF” value ([5]; Brain IP 10 mg/kg fed) was 1413 ng·h/g. For the same compound, the “AUCLAST” value ([5]; Brain IP 10 mg/kg fed) was 1315 ng·h/g, the “t½terminal” value ([5]; Brain IP 10 mg/kg fed) was 1.1 h and the max brain concentration [5] was 4 µM. The “AUC % Extrapolation” value ([5]; Plasma IP 10 mg/kg fed) was 8%, the “t½terminal” value ([5]; Plasma IP 10 mg/kg fed) was 1.1 h and the Kp [5] was 2. The half-life [5] was > 60 min, the Tmax ([5]; Brain IP 10 mg/kg fed) was 18 min and the Cmax [5, 6] was 3500 nM. It also gave a Cmax [5, 7] of 1410 ng/g, an AUC(0-inf) ([5]; Plasma IP 10 mg/kg fed) of 856 ng·h/mL and an AUC(0-t) ([5]; Plasma IP 10 mg/kg fed) of 792 ng·h/mL. It also gave a Tmax ([5]; Plasma IP 10 mg/kg fed) of 18 min, a Cmax [5, 8] of 2100 nM and a Cmax [5, 9] of 841 ng/mL. It also gave a remaining activity at 10 µM (5-HT2B) of 97%, a remaining activity at 10 µM (D5) of 37% and a Ki (D5; [10]) of 1260 nM. For the same compound, the remaining activity at 10 µM (α1B) was 100%, the remaining activity at 10 µM (5-HT2C) was 113% and the remaining activity at 10 µM (α1D) was 79%. The remaining activity at 10 µM (D3) was 71%.
